Results on nine molecules are retold here after patent publication US20250304587A1, “WEE1 INHIBITOR, PREPARATION THEREFOR AND USE THEREOF” (JIANGSU TASLY DIYI PHARMACEUTICAL CO., LTD., priority 2022, published 2025).

A value given as a limit tells only on which side of the number the result lay.

Data set [1] concerns BxPC3 cells. The data set can be described thus: Cell Titer-Glo anti-proliferation, BxPC3 cells. It counts as cell-based, human. Particulars: 3 days, read-out: Anti-proliferative activity BxPC3 (IC50 class). Put shortly: (§1)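 Each line was exposed to graded compound concentrations for 3 days at 37 °C, 5% CO2, with final DMSO at 0.2%. Viability was measured by Cell Titer-Glo luminescence, with untreated cells as the maximum and medium as the minimum signal. IC50 came from a variable-slope log(inhibitor)-response fit.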

Data set [2] has as its system HT-29 cells. The data set can be described thus: Cell Titer-Glo anti-proliferation, HT-29 cells. It counts as cell-based, human. Particulars: 3 days, read-out: Anti-proliferative activity HT-29 (IC50 class). Put shortly:
as §1

Data set [3] has as its system OVCAR-3 cells. The data set can be described thus: Cell Titer-Glo anti-proliferation, OVCAR-3 cells. It counts as cell-based. Particulars: 3 days, read-out: Anti-proliferative activity OVCAR-3 (IC50 class). Put shortly: as §1
Data set [4] deals with HUVEC cells. As to the kind of experiment: Cell Titer-Glo anti-proliferation, normal cells HUVEC. It counts as cell-based. Here is the method: (§2) Compound solutions of different concentration gradients were prepared. […] The cell growth group without compound was used as a positive control (maximum signal control) and the medium was used as a negative control (minimum signal control), while ensuring that the final level of DMSO in each reaction well was 0.2%. After removing the medium from the 384-well plate, 25 μl of the configured compound at different concentrations was transferred into the well plate and the compound and cells were incubated in the cell incubator at 37° C. with 5% CO2 for 3 days.
(§3) The 384-well plates were removed from the cell incubator and allowed to equilibrate for 1 h to room temperature. 25 μl of Cell Titer-Glo assay was added to each well, lysed on a shaker for 2 min and then read out (Luminescence) using a BMG PHERAStar after 10 min incubation. Calculate the inhibition rate from the luminescence signal.
(§4) to calculate the rate of inhibition of the cells by different concentrations of the compounds. The IC50 of the compound on cell activity inhibition was calculated by fitting a log(inhibitor) vs. response-Variable slope model to GraphPad Prism 6. The fitted equation was: Y=Bottom+(Top-Bottom)/(1+10^((Log IC50−X)*HillSlope)), where Y represents the rate of inhibition and X represents the concentration of the known compound after Log.
(§5) B. Evaluation of the Anti-Proliferative Effect of Compounds by the Cell Titer-Glo Method on Normal Cells HUVEC and HK2.
(§6) The test method is the same as the anti-proliferative activity evaluation of tumor cells.

Data set [5] deals with HK2 cells. As to the kind of experiment: Cell Titer-Glo anti-proliferation, normal cells HK2. It counts as cell-based. Here is the method: as §2, §3, §4, §5, §6
Data set [6] concerns plasma protein. The data set can be described thus: Plasma protein binding (equilibrium dialysis), mouse. Particulars: mouse plasma, 1 μM, 5 h dialysis.
Data set [7] has as its target Wee1 protein (Homo sapiens (Human), UniProt P30291). The data set can be described thus: TR-FRET binding of compound to Wee1 protein and Tracer 178. Particulars: Tracer 178, read-out: IC50, inhibitory activity against Wee1 kinase. As to the method: First, solutions of the compounds in different concentration gradients were prepared. The compounds were dissolved in DMSO and the compounds were diluted 4 folds with a total of 10 dose points and 2 parallel replicates for each concentration.
The IC50 for inhibition of enzyme activity by the compounds was then calculated using GraphPad Prism 6 and fitted with a log (inhibitor) vs. response-Variable slope mode. The fitting equation was: Y=Bottom+(Top−Bottom)/(1+10^((Log IC50−X)*HillSlope)), where Y represents the percentage of residual enzyme activity known and X represents the known concentration of compound after the logarithm.

The nature of data set [8]: Metabolic stability in liver microsomes, mouse. The format is in vitro ADME. As to the method:
(§7) Test Example 3: Evaluation of the Metabolic Stability of Liver Microsomes (Mouse and Human) In Vitro Microsomes were taken out from the −80° C. refrigerator, rapidly melted in a 37° C. water bath and placed on ice until ready to use. The test article was diluted with DMSO to prepare a 10 mM stock solution, and then diluted with acetonitrile to a 0.5 mM secondary stock solution. […] NADPH was diluted with Buffer C to a working solution of 6 mM for the starter solution. An acetonitrile solution containing an internal standard was prepared as the precipitant, and Verapamil-HCl was chosen as the internal standard at a concentration of 4 ng/ml. […] A separate plate with pointed bottom wells, noted as a precipitation plate, was added with 135 μL precipitant per well; 0 h samples were transferred to the plate after 10 min incubation and 15 μL of starter solution was added; the plate was placed on ice before centrifugation. The diluted starter solution was added in sufficient quantity to the dispensing plate to facilitate the multichannel pipette aspiration operation. The reaction was carried out on a warm incubation shaker and 15 μL of starter solution/sample is added to the plate using a multichannel pipette. The reaction was mixed with a slight shake to initiate the reaction, which was accurately timed and recorded using a timer; After the reaction time had elapsed, all the solution in the plate was aspirated using the multichannel pipette and added to the precipitation plate to terminate the reaction at that point in time. After all reactions had been terminated, the plates were shaken for ten minutes on a plate shaker at 600 rpm to precipitate the protein. The plate was centrifuged at 4° C. for 15 minutes at maximum rpm. 80 μL of supernatant was taken, 320 μL of pure water was added and mixed for LC-MS analysis.

The nature of data set [9]: Metabolic stability in liver microsomes, human. It counts as in vitro ADME. As to the method:
as §7

A short description of data set [10]: Metabolic stability in liver microsomes, rat. It counts as in vitro ADME. Here is the method:
as §7, with “Microsomes” for “Test Example 3: Evaluation of the Metabolic Stability of Liver Microsomes (Mouse and Human) In Vitro Microsomes”

Data set [11] in a line: Metabolic stability in liver microsomes, dog. It counts as in vitro ADME. Here is the method: as §7, with “Microsomes” for “Test Example 3: Evaluation of the Metabolic Stability of Liver Microsomes (Mouse and Human) In Vitro Microsomes”
Data set [12] can be described thus: Metabolic stability in liver microsomes, monkey. It counts as in vitro ADME. As to the method:
as §7, with “Microsomes” for “Test Example 3: Evaluation of the Metabolic Stability of Liver Microsomes (Mouse and Human) In Vitro Microsomes”

Data set [13] deals with Caco-2 cells. As to the kind of experiment: Membrane permeability in Caco-2 model. It counts as in vitro ADME. Particulars: for Efflux Ration: Caco2; for Papp A to B / Papp B to A: Caco2, 10 μM, 90 min. As to the method: (§8) Caco-2 cells were purchased from the American Model Tissue Cell Collection (Rockville, MD). The cell culture medium was modified Eagle's medium (MEM) containing 10% inactivated fetal bovine serum and 1% non-essential amino acids. […] The cells were incubated for 21-28 days after inoculation for transport experiments and the apparent permeability (Papp) of Lucifer Yellow was used to characterize and verify the compactness of the cell monolayer. […] After the incubation, dilute the samples on the apical side and basolateral side, and the concentrations of compounds on the apical and basolateral sides were detected by LC-MS/MS, and the concentrations of the compounds were quantified by standard curve.

The test system of data set [14] is plasma protein. As to the kind of experiment: Plasma protein binding (equilibrium dialysis), rat. It counts as in vitro ADME. The conditions noted are these: 1 μM, 5 h dialysis.
The target in data set [15] is hERG potassium channel (Homo sapiens (Human), UniProt Q12809). The data set can be described thus: hERG potassium channel inhibition, patch clamp in CHO hERG cells.
Data set [16] is described as follows: Membrane permeability in Caco-2 model. It counts as in vitro ADME. Particulars: human, Caco-2, pH 7.4. As to the method: as §8

Sequence of Wee1 protein (P30291 whole entry): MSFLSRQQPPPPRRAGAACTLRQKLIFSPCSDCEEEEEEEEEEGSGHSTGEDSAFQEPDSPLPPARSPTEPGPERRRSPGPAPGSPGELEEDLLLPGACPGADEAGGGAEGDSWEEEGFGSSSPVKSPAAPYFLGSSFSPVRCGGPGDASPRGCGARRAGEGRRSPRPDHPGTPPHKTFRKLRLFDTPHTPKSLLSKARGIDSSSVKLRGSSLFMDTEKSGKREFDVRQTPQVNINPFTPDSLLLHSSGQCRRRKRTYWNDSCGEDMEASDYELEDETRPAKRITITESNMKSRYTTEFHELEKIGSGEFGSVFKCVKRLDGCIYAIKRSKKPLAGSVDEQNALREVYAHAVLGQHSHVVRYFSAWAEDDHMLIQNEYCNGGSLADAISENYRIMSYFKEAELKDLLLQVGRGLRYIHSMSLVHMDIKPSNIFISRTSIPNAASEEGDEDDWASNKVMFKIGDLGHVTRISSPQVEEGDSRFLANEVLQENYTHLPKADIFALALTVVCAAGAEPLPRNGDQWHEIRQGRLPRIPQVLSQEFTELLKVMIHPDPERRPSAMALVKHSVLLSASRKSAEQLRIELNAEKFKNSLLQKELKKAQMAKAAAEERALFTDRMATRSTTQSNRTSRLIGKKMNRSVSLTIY
Sequence of hERG potassium channel (Q12809 whole entry): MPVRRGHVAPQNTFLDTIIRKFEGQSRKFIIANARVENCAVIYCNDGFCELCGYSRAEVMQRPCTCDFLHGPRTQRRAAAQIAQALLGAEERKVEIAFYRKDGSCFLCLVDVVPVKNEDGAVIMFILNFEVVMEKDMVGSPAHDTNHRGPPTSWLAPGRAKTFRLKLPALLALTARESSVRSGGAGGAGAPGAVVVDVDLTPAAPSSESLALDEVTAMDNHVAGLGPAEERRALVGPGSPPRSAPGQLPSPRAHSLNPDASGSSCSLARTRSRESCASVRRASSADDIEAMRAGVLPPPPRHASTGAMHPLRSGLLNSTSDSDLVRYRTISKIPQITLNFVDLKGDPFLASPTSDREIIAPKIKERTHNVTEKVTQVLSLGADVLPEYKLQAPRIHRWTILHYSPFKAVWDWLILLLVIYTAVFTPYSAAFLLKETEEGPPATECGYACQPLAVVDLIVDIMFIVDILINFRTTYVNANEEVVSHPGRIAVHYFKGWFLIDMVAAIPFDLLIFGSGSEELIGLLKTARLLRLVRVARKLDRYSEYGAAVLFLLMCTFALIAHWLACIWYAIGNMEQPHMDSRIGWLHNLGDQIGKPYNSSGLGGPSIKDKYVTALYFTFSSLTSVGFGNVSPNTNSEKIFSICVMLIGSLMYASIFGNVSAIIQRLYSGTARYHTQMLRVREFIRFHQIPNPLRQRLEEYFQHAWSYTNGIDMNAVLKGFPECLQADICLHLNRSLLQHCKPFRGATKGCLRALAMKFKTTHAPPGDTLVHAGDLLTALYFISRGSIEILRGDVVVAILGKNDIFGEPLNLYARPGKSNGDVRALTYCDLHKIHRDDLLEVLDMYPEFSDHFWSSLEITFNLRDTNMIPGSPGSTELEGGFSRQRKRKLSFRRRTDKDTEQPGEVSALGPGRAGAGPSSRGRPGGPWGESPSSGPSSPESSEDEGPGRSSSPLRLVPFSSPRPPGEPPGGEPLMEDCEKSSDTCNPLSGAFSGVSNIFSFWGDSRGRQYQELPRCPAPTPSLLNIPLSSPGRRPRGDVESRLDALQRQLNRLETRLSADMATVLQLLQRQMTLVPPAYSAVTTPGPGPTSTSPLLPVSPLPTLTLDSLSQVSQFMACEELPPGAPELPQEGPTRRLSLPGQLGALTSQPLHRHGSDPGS

`C=CCn1c(=O)c2cnc(Nc3ccc(N4CCC(N(C)C)CC4)c(C)c3)nc2n1-c1ccc2c(n1)C(C)(O)C1(CC1)C2` (racemic) [Compound 15]: the IC50 in data set [1] is 0.1 to 1 µM; in data set [2], 0.1 to 1 µM; in data set [3], 0.1 to 1 µM; in data set [4], more than 10 µM; in [5] it was 0.76 µM. Besides, the “Plasma Protein binding (PPB) Mouse” value in [6] is on record as 93.51%.
As for `C=CCn1c(=O)c2cnc(Nc3ccc(N4CCN(C)CC4)cc3)nc2n1-c1ccc2c(n1)[C@H](O)C1(CC2)CC1` (single isomer, unassigned) [Compound 4b], the IC50 was not above 0.005 µM in data set [7]; 0.1 to 1 µM in data set [1]; 0.1 to 1 µM in [2]; 0.1 to 1 µM in data set [3]; more than 10 µM in [4]; 1.29 µM in [5]. In addition, the “T1/2 liver microsomes Mouse” value in data set [8] came out at 72.82 min. The “T1/2 liver microsomes Human” value in data set [9] came to 44.82 min. Also, in data set [10], the “T1/2 liver microsomes Rat” value is listed as more than 120 min. In addition, the “T1/2 liver microsomes Dog” value in [11] came out at 41.74 min. The “T1/2 liver microsomes Monkey” value in data set [12] was determined as 22.84 min. Besides, the “Efflux Ration” value in data set [13] was found to be 14.03. In [13], the “Papp A to B” value is recorded as 0.94 10^−6 cm/s. The “Papp B to A” value in [13] is recorded as 13.19 10^−6 cm/s. In addition, the “Plasma Protein binding (PPB) Rat” value in data set [14] was 77.45%. In addition, in [6], the “Plasma Protein binding (PPB) Mouse” value was 87.71%. The entries for the “hERG Inhibition” value in [15] (test concentration 5 μM) and in [15] (test concentration 20 μM) were 23.84 ± 4.39% and 42.42 ± 5.58%, respectively.
For the molecule `C=CCn1c(=O)c2cnc(Nc3ccc(N4CCC(N(C)C)CC4)c(C)c3)nc2n1-c1ccc2c(n1)[C@@](C)(O)C1(CC2)CC1` (single isomer, unassigned) [Compound 52a], the IC50 in data set [1] is 0.1 to 1 µM; in data set [2], 0.1 to 1 µM; in data set [3], 0.1 to 1 µM; in data set [4], 3.83 µM; in data set [5] it was 0.48 µM. Moreover, the “T1/2 liver microsomes Mouse” value in data set [8] stood at 96.19 min. The “T1/2 liver microsomes Human” value in data set [9] is listed as 26.24 min. The “T1/2 liver microsomes Rat” value in [10] was 31.42 min. In data set [11], the “T1/2 liver microsomes Dog” value is 22.8 min. Besides, in data set [12], the “T1/2 liver microsomes Monkey” value was 14.22 min.
For the molecule `C=CCn1c(=O)c2cnc(Nc3ccc(N4CCN(C)CC4)cc3)nc2n1-c1ccc2c(n1)C(C)(O)C1(CC2)CC1` (stereo not shown) [Compound 6], the IC50 in data set [7] was not above 0.005 µM; in data set [1], 1 to 2 µM; in data set [2], 0.1 to 1 µM; in data set [3], 0.1 to 1 µM. In data set [6], the “Plasma Protein binding (PPB) Mouse” value came out at 97.2%.
For the molecule `C=CCn1c(=O)c2cnc(Nc3ccc(N4CCC5(CCN(C)CC5)CC4)cc3)nc2n1-c1ccc2c(n1)C(C)(O)C1(CC1)C2` (stereo not shown) [Compound 11], the concentration for half-maximal inhibition (IC50) is 0.1 to 1 µM in data set [1]; 0.1 to 1 µM in [2]; 0.1 to 1 µM in data set [3]; more than 10 µM in data set [4]; 1.46 µM in [5]. Also, in [13], the “Efflux Ration” value turned out to be 21.59. Further, in [13], the “Papp A to B” value is 0.41 10^−6 cm/s. Besides, the “Papp B to A” value in [13] is given as 8.85 10^−6 cm/s. Moreover, in data set [6], the “Plasma Protein binding (PPB) Mouse” value is recorded as 92.17%.
With `C=CCn1c(=O)c2cnc(Nc3ccc(N4C[C@H]5CN(C)C[C@H]5C4)cc3)nc2n1-c1ccc2c(n1)C(O)(CC)C1(CC1)C2` (stereo partly shown) [Compound 28], the IC50 was not above 0.005 µM in data set [7]; 0.1 to 1 µM in data set [1]; 0.1 to 1 µM in [2]; 0.1 to 1 µM in [3]; more than 10 µM in data set [4]; 1.19 µM in [5]. Also, the “T1/2 liver microsomes Mouse” value in data set [8] came out at 51.65 min. The “T1/2 liver microsomes Human” value in data set [9] turned out to be 29.95 min. The “T1/2 liver microsomes Rat” value in [10] came to 30.9 min. Besides, the “T1/2 liver microsomes Dog” value in [11] is 38.2 min. The “T1/2 liver microsomes Monkey” value in data set [12] turned out to be 17.74 min. In addition, the “Plasma Protein binding (PPB) Rat” value in [14] is on record as 86.08%. The “Plasma Protein binding (PPB) Mouse” value in [6] is recorded as 92.29%.
With `C=CCn1c(=O)c2cnc(Nc3ccc(N4CCN(C)CC4)cc3)nc2n1-c1ccc2c(n1)C(O)(C(F)(F)F)C1(CC1)C2` (stereo not shown) [Compound 32], the IC50 in data set [7] was 0.005 to 0.01 µM; in data set [1] it was 1 to 2 µM; in [2], 0.1 to 1 µM; in data set [3], 1 to 2 µM; in data set [4], more than 10 µM; in data set [5], 1.14 µM. In addition, the “Plasma Protein binding (PPB) Mouse” value in [6] is 96.87%.
Turning to `[2H][C@]1(O)c2nc(-n3c4nc(Nc5ccc(N6CCC7(CCN(C)CC7)CC6)c(C)c5)ncc4c(=O)n3CC=C)ccc2CCC12CC2` [Compound 61b], the “Plasma Protein binding (PPB) Rat” value in data set [14] is reported as 93.61%. In data set [6], the “Plasma Protein binding (PPB) Mouse” value was 98.46%.
Take `CC(C)NCC(O)COc1cccc2ccccc12` (stereo not shown) [Propranolol]: in data set [16] (Caco2, 10 μM, 90 min), the Papp A→B at 90 min, 10 µM worked out at 14.7 ×10⁻⁶ cm/s and the Papp B→A at 90 min, 10 µM was determined as 13 ×10⁻⁶ cm/s. Besides, the efflux ratio at 90 min, 10 µM in [16] (Caco2, read-out: Efflux Ration) came out at 0.88.
